Reference: PMC12155096 (International Journal of Molecular Sciences, 2025)
Structures can show the parent of a compound that is named as a salt. Where two headings read alike, the source gives them in different places.

What was measured:
[1] = molecular target: T1, human CYP1A2 (Homo sapiens, UniProt P05177); assay: biochemical
T1 sequence (P05177 1-516): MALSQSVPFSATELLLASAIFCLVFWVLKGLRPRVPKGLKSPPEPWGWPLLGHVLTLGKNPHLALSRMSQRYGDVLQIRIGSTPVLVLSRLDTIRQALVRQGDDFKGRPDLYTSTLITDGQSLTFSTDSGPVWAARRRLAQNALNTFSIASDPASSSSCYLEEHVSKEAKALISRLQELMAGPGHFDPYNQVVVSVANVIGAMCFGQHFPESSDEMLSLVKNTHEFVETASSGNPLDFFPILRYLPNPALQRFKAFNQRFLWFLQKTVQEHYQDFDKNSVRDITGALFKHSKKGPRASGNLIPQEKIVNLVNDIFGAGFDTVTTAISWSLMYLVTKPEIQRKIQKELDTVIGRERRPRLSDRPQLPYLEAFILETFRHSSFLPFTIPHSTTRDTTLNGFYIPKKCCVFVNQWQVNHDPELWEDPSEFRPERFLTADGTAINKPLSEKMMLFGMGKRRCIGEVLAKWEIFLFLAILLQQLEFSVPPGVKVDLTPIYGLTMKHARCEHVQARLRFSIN

[2] = molecular target: T2, human CYP2C9 (Homo sapiens, UniProt P11712); assay: biochemical
[3] = molecular target: T3, human CYP2C19 (Homo sapiens, UniProt P33261); assay: biochemical; conditions: for AC50: CYP2C19 AC50 (half-maximal activity concentration)
[4] = molecular target: T4, human CYP2D6 (Homo sapiens, UniProt P10635); assay: biochemical
[5] = molecular target: T1, human CYP1A2
[6] = molecular target: T3, human CYP2C19; conditions: for CYP2C19 Efficacy (in parenthesis): human
[7] = molecular target: T2, human CYP2C9; conditions: human
[8] = molecular target: T4, human CYP2D6; conditions: human
[9] = CYP1A2 IC50 (half-maximal inhibitory concentration)
[10] = CYP2C9 IC50 (half-maximal inhibitory concentration)
[11] = CYP2C19 IC50 (half-maximal inhibitory concentration)
[12] = CYP2D6 IC50 (half-maximal inhibitory concentration)
[13] = CYP2D6 AC50 (half-maximal activity concentration)
[14] = CYP2C9 AC50 (half-maximal activity concentration)
[15] = CYP1A2 AC50 (half-maximal activity concentration)

T4 sequence (P10635 whole entry): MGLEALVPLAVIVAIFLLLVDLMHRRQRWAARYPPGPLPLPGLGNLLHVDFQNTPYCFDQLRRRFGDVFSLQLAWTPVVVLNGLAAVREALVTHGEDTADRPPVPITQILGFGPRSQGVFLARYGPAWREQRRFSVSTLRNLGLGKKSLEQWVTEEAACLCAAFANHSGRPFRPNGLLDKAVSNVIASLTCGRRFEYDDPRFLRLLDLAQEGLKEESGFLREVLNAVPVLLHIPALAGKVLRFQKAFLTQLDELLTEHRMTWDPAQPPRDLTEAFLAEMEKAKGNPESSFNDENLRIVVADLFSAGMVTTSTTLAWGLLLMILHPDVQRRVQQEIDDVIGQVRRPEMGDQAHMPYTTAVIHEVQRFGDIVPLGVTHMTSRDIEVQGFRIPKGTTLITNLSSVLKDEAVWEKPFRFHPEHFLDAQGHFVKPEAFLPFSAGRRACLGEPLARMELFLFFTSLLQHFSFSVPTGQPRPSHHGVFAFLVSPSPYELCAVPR
T2 sequence (P11712 whole entry): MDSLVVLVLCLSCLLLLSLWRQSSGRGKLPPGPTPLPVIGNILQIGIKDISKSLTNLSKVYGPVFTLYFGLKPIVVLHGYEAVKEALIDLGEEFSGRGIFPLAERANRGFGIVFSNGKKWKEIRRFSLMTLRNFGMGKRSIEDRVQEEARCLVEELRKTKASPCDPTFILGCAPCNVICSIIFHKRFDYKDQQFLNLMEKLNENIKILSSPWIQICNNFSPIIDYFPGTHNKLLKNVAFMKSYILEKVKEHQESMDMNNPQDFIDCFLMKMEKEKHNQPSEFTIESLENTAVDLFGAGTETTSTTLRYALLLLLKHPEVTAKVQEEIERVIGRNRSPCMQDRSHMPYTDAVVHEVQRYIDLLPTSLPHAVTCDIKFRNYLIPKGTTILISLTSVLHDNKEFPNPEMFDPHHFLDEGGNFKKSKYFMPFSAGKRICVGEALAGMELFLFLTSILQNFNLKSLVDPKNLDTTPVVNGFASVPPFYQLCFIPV
T3 sequence (P33261 whole entry): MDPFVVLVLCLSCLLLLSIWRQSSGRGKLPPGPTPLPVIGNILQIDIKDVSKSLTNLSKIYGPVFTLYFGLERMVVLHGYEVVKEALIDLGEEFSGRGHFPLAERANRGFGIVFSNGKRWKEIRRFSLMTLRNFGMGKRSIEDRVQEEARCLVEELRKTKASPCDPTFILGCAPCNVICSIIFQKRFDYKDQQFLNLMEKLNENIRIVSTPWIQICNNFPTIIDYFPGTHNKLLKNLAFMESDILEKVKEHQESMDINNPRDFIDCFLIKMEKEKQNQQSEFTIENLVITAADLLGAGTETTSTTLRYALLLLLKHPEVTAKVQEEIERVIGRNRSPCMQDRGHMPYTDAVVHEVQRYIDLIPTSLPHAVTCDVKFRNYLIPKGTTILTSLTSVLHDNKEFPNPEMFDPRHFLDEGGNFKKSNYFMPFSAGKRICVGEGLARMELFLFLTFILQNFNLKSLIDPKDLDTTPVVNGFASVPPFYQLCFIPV

## Cc1[nH]cnc1CN1CCc2c(c3ccccc3n2C)C1=O [Alosetron hydrochloride]
[1]; [9]
  IC50: 0.89 µM
[2]; [10]
  IC50: 1.66 µM
[3]; [11]
  IC50: 27.8 µM
[4]; [12]
  IC50: 10.8 µM

## CC1=C(C(=O)OC(C)C)C(c2cccc([N+](=O)[O-])c2)C(C(=O)OC2CN(C(c3ccccc3)c3ccccc3)C2)=C(N)N1 (stereo not shown) [Azelnidipine]
[2]
  IC50: 1.56 ± 0.18 µM
[3]
  IC50: 2.43 ± 0.68 µM
[4]
  IC50: 13.2 ± 3.2 µM

## COc1ccc2cc3[n+](cc2c1OC)CCc1cc2c(cc1-3)OCO2 [Berberine chloride]
[1]; [9]
  IC50: 23.6 µM
[3]; [11]
  IC50: 26.9 µM
[4]; [12]
  IC50: 0.52 µM

## CCCCC(=O)O[C@]1(C(=O)CO)[C@@H](C)C[C@H]2[C@@H]3CCC4=CC(=O)C=C[C@]4(C)[C@@]3(F)[C@@H](O)C[C@@]21C [Betamethasone valerate]
[2]; [10]
  IC50: 17.4 µM
[3]; [11]
  IC50: 31.1 µM
[4]; [12]
  IC50: 39.1 µM

## O=C1CC2(CCCC2)CC(=O)N1CCNCC1COc2ccccc2O1 (stereo not shown) [Binospirone mesylate]
[2]
  IC50: 23.5 ± 5.69 µM
[3]
  IC50: 8.77 ± 1.42 µM
[4]
  IC50: 0.29 ± 0.02 µM

## Cc1cc2c(OCC(CNC(C)(C)C)OC(=O)c3ccccc3)cccc2[nH]1 (stereo not shown) [Bopindolol]
[2]
  IC50: 6.95 ± 0.8 µM
[3]
  IC50: 23.9 ± 13 µM
[4]
  IC50: 0.64 ± 0.04 µM

## CCCC(=O)O[C@]1(C(=O)CCl)[C@@H](C)C[C@H]2[C@@H]3CCC4=CC(=O)C=C[C@]4(C)[C@@]3(F)C(=O)C[C@@]21C [Clobetasone butyrate]
[2]; [10]
  IC50: 17.6 µM
[3]; [11]
  IC50: 8.43 µM
[4]; [12]
  IC50: 7.77 µM

## CN1CCC(=C2c3ccccc3C=Cc3ccccc32)CC1 [Cyproheptadine hydrochloride]
[3]
  AC50: 21.5 µM
[4]; [13]
  AC50: 2.67 µM

## O=C(Nc1ccccc1)OCC(CN1CCCCC1)OC(=O)Nc1ccccc1 (stereo not shown) [Diperodon hydrochloride]
[2]; [10]
  IC50: 20.8 µM
[3]; [11]
  IC50: 7.12 µM
[4]; [12]
  IC50: 0.36 µM

## CCN(CC)CCOc1ccccc1C(=O)CCc1ccccc1 [Etafenone]
[1]
  IC50: 6.05 ± 1.51 µM
[3]
  IC50: 35.6 ± 11.4 µM
[4]
  IC50: 0.64 ± 0.08 µM

## CC(Cc1ccccc1)NCCn1cnc2c1c(=O)n(C)c(=O)n2C (stereo not shown) [Fenethylline hydrochloride]
[3]; [11]
  IC50: 85.1 µM
[4]; [12]
  IC50: 5.37 µM

## O=C(CN1CCN(Cc2ccc3c(c2)OCO3)CC1)N1c2ccccc2Sc2ccccc21 [Fenoverine]
[2]; [10]
  IC50: 18.9 µM
[3]; [11]
  IC50: 40.7 µM
[4]; [12]
  IC50: 0.46 µM

## CN1CCN(CCC(=O)N2c3ccccc3Sc3ccc(C(F)(F)F)cc32)CC1 [Ftormetazine]
[1]; [9]
  IC50: 29.2 µM
[3]; [11]
  IC50: 27 µM
[4]; [12]
  IC50: 0.14 µM

## N=C(N)NC(=O)Cc1c(Cl)cccc1Cl [Guanfacine hydrochloride]
[5]
  CYP1A2 AC50 (half-maximal activity concentration): Inactive
[6]
  CYP2C19 AC50 (half-maximal activity concentration): Inactive
[2]; [14]
  AC50: 27.3 µM
[4]; [13]
  AC50: 25.8 µM

## COc1cc(C(C)=O)ccc1OCCCN1CCC(c2noc3cc(F)ccc23)CC1 [Iloperidone]
[2]
  IC50: 22.9 ± 14.1 µM
[4]
  IC50: 10.1 ± 2.8 µM

## CN1CCC(=C2c3ccccc3CC(=O)c3sccc32)CC1 [Ketotifen]
[3]
  AC50: 37.5 µM
[4]; [13]
  AC50: 2.2 µM

## COC(=O)C1=C(C)NC(C)=C(C(=O)OC(C)(C)CN(C)CCC(c2ccccc2)c2ccccc2)C1c1cccc([N+](=O)[O-])c1 (stereo not shown) [Lercanidipine hydrochloride]
[1]
  IC50: 32.8 ± 2.67 µM
[2]
  IC50: 2.89 ± 0.52 µM
[4]
  IC50: 4.44 ± 1.02 µM

## O=C(O)c1nn(Cc2ccc(Cl)cc2Cl)c2ccccc12 [Lonidamine]
[2]; [14]
  AC50: 68 µM
[4]; [13]
  AC50: 66 µM

## Clc1ccc(C(c2ccccc2Cl)C(Cl)Cl)cc1 (stereo not shown) [Mitotane]
[7]
  CYP2C9 Efficacy (in parenthesis): 10.57 ± 0.69 (-106 ± 4) %
[6]
  CYP2C19 Efficacy (in parenthesis): 0.82 ± 0.15 (-131 ± 13) %
[8]
  CYP2D6 Efficacy (in parenthesis): 32.45 ± 5.84 (-38 ± 9) %
[2]; [14]
  AC50: 10.6 µM
[2]; [10]
  IC50: 10.6 µM
[3]
  AC50: 0.82 µM
[3]; [11]
  IC50: 0.82 µM
[4]; [13]
  AC50: 32.4 µM
[4]; [12]
  IC50: 32.4 µM

## C[C@@H]1C[C@H]2[C@@H]3CCC4=CC(=O)C=C[C@]4(C)[C@@]3(Cl)[C@@H](O)C[C@]2(C)[C@@]1(OC(=O)c1ccco1)C(=O)CCl [Mometasone furoate, reference compound]
[2]; [10]
  IC50: 8.08 µM
[3]; [11]
  IC50: 7.97 µM
[4]; [12]
  IC50: 3.75 µM

## Cc1c(O)cccc1C(=O)N[C@@H](CSc1ccccc1)[C@H](O)CN1C[C@H]2CCCC[C@H]2C[C@H]1C(=O)NC(C)(C)C [Nelfinavir mesylate]
[2]; [10]
  IC50: 19.1 µM
[3]; [11]
  IC50: 42.1 µM
[4]; [12]
  IC50: 14.4 µM

## O=C(OCC1(COC(=O)c2cccnc2)CCCC(COC(=O)c2cccnc2)(COC(=O)c2cccnc2)C1O)c1cccnc1 [Nicomolol]
[2]; [10]
  IC50: 8.67 µM
[3]; [11]
  IC50: 23.3 µM
[4]; [12]
  IC50: 22.4 µM

## COc1ccc2c(c1OC)C(=O)O[C@@H]2[C@H]1c2c(cc3c(c2OC)OCO3)CCN1C [Noscapine]
[2]; [10]
  IC50: 0.84 µM
[3]; [11]
  IC50: 1.38 µM
[4]; [12]
  IC50: 12.9 µM

## CC(CCc1ccccc1)NC(C)C(O)c1ccc(O)cc1 (stereo not shown) [Nylidrin]
[1]; [15]
  AC50: 13.6 µM
[1]; [9]
  IC50: 13.6 µM
[3]
  AC50: 9.42 µM
[3]; [11]
  IC50: 9.42 µM
[4]; [13]
  AC50: 0.49 µM
[4]; [12]
  IC50: 0.49 µM

## CN1CCCN=C1COC(=O)C(O)(c1ccccc1)C1CCCCC1 (stereo not shown) [Oxyphencyclimine hydrochloride]
[1]
  IC50: 14.6 µM
[4]
  IC50: 0.92 µM

## CC(N/C(=N\C#N)Nc1ccncc1)C(C)(C)C (stereo not shown) [Pinacidil monohydrate]
[7]
  CYP2C9 Efficacy (in parenthesis): 13.86 ± 1.59 (-102 ± 3) %
[6]
  CYP2C19 Efficacy (in parenthesis): 2.06 ± 0.47 (-116 ± 6) %
[8]
  CYP2D6 Efficacy (in parenthesis): 25.27 ± 7.04 (-50 ± 9) %
[2]; [10]
  IC50: 13.9 µM
[3]; [11]
  IC50: 2.06 µM
[4]; [12]
  IC50: 25.3 µM

## Cn1cc(C(=O)[C@@H]2CCc3nc[nH]c3C2)c2ccccc21 [Ramosetron hydrochloride]
[1]
  AC50: 17.4 µM
[2]
  AC50: 10.7 ± 4.21 µM
[4]
  AC50: 17.4 µM

## C=C(C)[C@H]1Cc2c(ccc3c2O[C@@H]2COc4cc(OC)c(OC)cc4[C@@H]2C3=O)O1 [Rotenone]
[2]
  IC50: 9.2 µM
[3]; [11]
  IC50: 1.04 µM
[4]
  IC50: 37.7 µM

## CCCc1nn(C)c2c(=O)[nH]c(-c3cc(S(=O)(=O)N4CCN(C)CC4)ccc3OCC)nc12 [Sildenafil citrate]
[2]; [10]
  IC50: 20.6 µM
[3]; [11]
  IC50: 30.4 µM
[4]; [12]
  IC50: 31.7 µM

## Nc1ccc(S(=O)(=O)Nc2nccs2)cc1 [Sulfathiazole]
[1]; [15]
  AC50: 33.2 µM
[2]; [14]
  AC50: 13.3 µM
[4]; [13]
  AC50: 56.1 µM

## CN1CCN(CCCN2c3ccccc3Sc3ccc(S(=O)(=O)N(C)C)cc32)CC1 [Thioproperazine dimethanesulfonate]
[1]
  IC50: 24.1 ± 9.56 µM
[2]
  IC50: 17.4 µM
[4]
  IC50: 15.5 µM

## OC(CCN1CCCCC1)(c1ccccc1)C1CCCCC1 (stereo not shown) [Trihexyphenidyl hydrochloride]
[3]; [11]
  IC50: 17.2 µM
[4]; [12]
  IC50: 0.76 µM

## CC1(C)CCC(=Cc2ccc(Cl)cc2)C1(O)Cn1cncn1 (stereo not shown) [Triticonazole]
[7]
  CYP2C9 Efficacy (in parenthesis): 1.47 ± 0.17 (-105 ± 3) %
[6]
  CYP2C19 Efficacy (in parenthesis): 0.34 ± 0.15 (-129 ± 16) %
[8]
  CYP2D6 Efficacy (in parenthesis): 9.5 ± 2.8 (-97 ± 3) %
[2]; [10]
  IC50: 1.47 µM
[3]; [11]
  IC50: 0.34 µM
[4]; [12]
  IC50: 9.5 µM

## C=CCOC(Cn1ccnc1)c1ccc(Cl)cc1Cl (stereo not shown) [imazalil]
[2]; [10]
  IC50: 0.77 µM
[3]; [11]
  IC50: 0.15 µM
[4]; [12]
  IC50: 6.12 µM

## Clc1ccc(C(c2ccccc2Cl)C(Cl)Cl)cc1 (stereo not shown) [o,p'-DDD]
[2]; [14]
  AC50: 16.8 µM
[3]
  AC50: 1.05 µM
[4]; [13]
  AC50: 31.2 µM
